Test results reported in the supplement of paper PMC11208160.

Assay: recombinant barcode read abundance after kanamycin selection (control-corrected) (log10(CPM+1)); higher = more efficient recombination; sequences stand for … in AGTGCAGAGAAAATCGGCCAGTTTTCTCTGCCTGCAGTCCGCATGCCGT…ATTTATGCAGCGGACTGCCTTTCTCCCAAAGTGATAAACCGGACAGTATCATGGACCGGTTTTCCCGGTAATCCGTATTTGCAAGGTTGGTTTCACT; site = the 11-nt target
Experimental: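 Same pooled E. coli target screen (IS621 bridge recombinase, kanamycin selection, control-corrected CPM, mean of 2 biological replicates). Here the two core-binding nucleotides of the LTG and RTG of the bridge RNA target-binding loop are mutated. Target and donor CT cores are held constant, and the other 9 guide positions match the target. The target is read from the library oligo sequence. Molecule = full bridge RNA written as DNA: nt 1-80 from the library oligo, rest WT scaffold.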

In order of rising “recombinant barcode read abundance (log10)” value:
1. AAACATGAATGGGTTCTAACCTGTTGCCTAG [AAACATGCTAG_LTGcore_AA_RTGcore_CT] (site AAACATGCTAG) (LTG core: AA, RTG core: CT)  0
2. ACGGGACTCTGGGTTCTAACCTGTTGCAGGA [ACGGGACCTCT_LTGcore_TC_RTGcore_TC] (site ACGGGACCTCT) (LTG core: TC, RTG core: TC)  0
3. AGGAGGTCATGGGTTCTAACCTGTTGCCTTG [AGGAGGTCTAG_LTGcore_CA_RTGcore_CA] (site AGGAGGTCTAG) (LTG core: CA, RTG core: CA)  0
4. AGGCCTCCTTGGGTTCTAACCTGTTGCCTGT [AGGCCTCCTAG_LTGcore_CT_RTGcore_AC] (site AGGCCTCCTAG) (LTG core: CT, RTG core: AC)  0.0115
5. ACGGGACCTTGGGTTCTAACCTGTTGCAGCA [ACGGGACCTCT_LTGcore_CT_RTGcore_TG] (site ACGGGACCTCT) (LTG core: CT, RTG core: TG)  0.0129
6. ACGGGACTATGGGTTCTAACCTGTTGCAGAG [ACGGGACCTCT_LTGcore_TA_RTGcore_CT] (site ACGGGACCTCT) (LTG core: TA, RTG core: CT)  0.0145
7. AAACATGTGTGGGTTCTAACCTGTTGCCTCA [AAACATGCTAG_LTGcore_TG_RTGcore_TG] (site AAACATGCTAG) (LTG core: TG, RTG core: TG)  0.015
8. AGGCCTCAGTGGGTTCTAACCTGTTGCCTAG [AGGCCTCCTAG_LTGcore_AG_RTGcore_CT] (site AGGCCTCCTAG) (LTG core: AG, RTG core: CT)  0.0227
9. AAACAGTGGTGGGTTCTAACCTGTTGCCTAG [AAACAGTCTAG_LTGcore_GG_RTGcore_CT] (site AAACAGTCTAG) (LTG core: GG, RTG core: CT)  0.0371
10. AAACAGTGATGGGTTCTAACCTGTTGCCTTC [AAACAGTCTAG_LTGcore_GA_RTGcore_GA] (site AAACAGTCTAG) (LTG core: GA, RTG core: GA)  0.0385
11. AAACAGTTGTGGGTTCTAACCTGTTGCCTCA [AAACAGTCTAG_LTGcore_TG_RTGcore_TG] (site AAACAGTCTAG) (LTG core: TG, RTG core: TG)  0.0424
12. AGGAGGTGTTGGGTTCTAACCTGTTGCCTAC [AGGAGGTCTAG_LTGcore_GT_RTGcore_GT] (site AGGAGGTCTAG) (LTG core: GT, RTG core: GT)  0.0506
13. AGGAGGTGGTGGGTTCTAACCTGTTGCCTCC [AGGAGGTCTAG_LTGcore_GG_RTGcore_GG] (site AGGAGGTCTAG) (LTG core: GG, RTG core: GG)  0.0671
14. AGGAGGTTGTGGGTTCTAACCTGTTGCCTCA [AGGAGGTCTAG_LTGcore_TG_RTGcore_TG] (site AGGAGGTCTAG) (LTG core: TG, RTG core: TG)  0.0756
15. ACGGGACATTGGGTTCTAACCTGTTGCAGAG [ACGGGACCTCT_LTGcore_AT_RTGcore_CT] (site ACGGGACCTCT) (LTG core: AT, RTG core: CT)  0.0817
16. AGGCCTCCTTGGGTTCTAACCTGTTGCCTCC [AGGCCTCCTAG_LTGcore_CT_RTGcore_GG] (site AGGCCTCCTAG) (LTG core: CT, RTG core: GG)  0.102
17. AAACAGTTTTGGGTTCTAACCTGTTGCCTAG [AAACAGTCTAG_LTGcore_TT_RTGcore_CT] (site AAACAGTCTAG) (LTG core: TT, RTG core: CT)  0.109
18. AGGCCTCCTTGGGTTCTAACCTGTTGCCTAA [AGGCCTCCTAG_LTGcore_CT_RTGcore_TT] (site AGGCCTCCTAG) (LTG core: CT, RTG core: TT)  0.109
19. AGGCCTCACTGGGTTCTAACCTGTTGCCTGT [AGGCCTCCTAG_LTGcore_AC_RTGcore_AC] (site AGGCCTCCTAG) (LTG core: AC, RTG core: AC)  0.113
20. AAACATGACTGGGTTCTAACCTGTTGCCTGT [AAACATGCTAG_LTGcore_AC_RTGcore_AC] (site AAACATGCTAG) (LTG core: AC, RTG core: AC)  0.123
21. AAACATGGGTGGGTTCTAACCTGTTGCCTCC [AAACATGCTAG_LTGcore_GG_RTGcore_GG] (site AAACATGCTAG) (LTG core: GG, RTG core: GG)  0.137
22. AGGCCTCCCTGGGTTCTAACCTGTTGCCTGG [AGGCCTCCTAG_LTGcore_CC_RTGcore_CC] (site AGGCCTCCTAG) (LTG core: CC, RTG core: CC)  0.146
23. AGGAGGTACTGGGTTCTAACCTGTTGCCTGT [AGGAGGTCTAG_LTGcore_AC_RTGcore_AC] (site AGGAGGTCTAG) (LTG core: AC, RTG core: AC)  0.183
24. AAACAGTGATGGGTTCTAACCTGTTGCCTAG [AAACAGTCTAG_LTGcore_GA_RTGcore_CT] (site AAACAGTCTAG) (LTG core: GA, RTG core: CT)  0.192
25. AGGAGGTCATGGGTTCTAACCTGTTGCCTAG [AGGAGGTCTAG_LTGcore_CA_RTGcore_CT] (site AGGAGGTCTAG) (LTG core: CA, RTG core: CT)  0.207
26. AGGAGGTGATGGGTTCTAACCTGTTGCCTTC [AGGAGGTCTAG_LTGcore_GA_RTGcore_GA] (site AGGAGGTCTAG) (LTG core: GA, RTG core: GA)  0.218
27. AGGAGGTCCTGGGTTCTAACCTGTTGCCTGG [AGGAGGTCTAG_LTGcore_CC_RTGcore_CC] (site AGGAGGTCTAG) (LTG core: CC, RTG core: CC)  0.227
28. AGGCCTCATTGGGTTCTAACCTGTTGCCTAG [AGGCCTCCTAG_LTGcore_AT_RTGcore_CT] (site AGGCCTCCTAG) (LTG core: AT, RTG core: CT)  0.254
29. AGGAGGTCTTGGGTTCTAACCTGTTGCCTAC [AGGAGGTCTAG_LTGcore_CT_RTGcore_GT] (site AGGAGGTCTAG) (LTG core: CT, RTG core: GT)  0.332
30. AGGAGGTCTTGGGTTCTAACCTGTTGCCTTG [AGGAGGTCTAG_LTGcore_CT_RTGcore_CA] (site AGGAGGTCTAG) (LTG core: CT, RTG core: CA)  0.336
31. AGGAGGTCGTGGGTTCTAACCTGTTGCCTCG [AGGAGGTCTAG_LTGcore_CG_RTGcore_CG] (site AGGAGGTCTAG) (LTG core: CG, RTG core: CG)  0.384
32. AGGAGGTTGTGGGTTCTAACCTGTTGCCTAG [AGGAGGTCTAG_LTGcore_TG_RTGcore_CT] (site AGGAGGTCTAG) (LTG core: TG, RTG core: CT)  0.42
33. ACGGGACCTTGGGTTCTAACCTGTTGCAGTC [ACGGGACCTCT_LTGcore_CT_RTGcore_GA] (site ACGGGACCTCT) (LTG core: CT, RTG core: GA)  0.425
34. AGGAGGTCTTGGGTTCTAACCTGTTGCCTTA [AGGAGGTCTAG_LTGcore_CT_RTGcore_TA] (site AGGAGGTCTAG) (LTG core: CT, RTG core: TA)  0.446
35. ACGGGACGTTGGGTTCTAACCTGTTGCAGAG [ACGGGACCTCT_LTGcore_GT_RTGcore_CT] (site ACGGGACCTCT) (LTG core: GT, RTG core: CT)  0.463
36. AAACATGCTTGGGTTCTAACCTGTTGCCTTA [AAACATGCTAG_LTGcore_CT_RTGcore_TA] (site AAACATGCTAG) (LTG core: CT, RTG core: TA)  0.485
37. ACGGGACCTTGGGTTCTAACCTGTTGCAGGT [ACGGGACCTCT_LTGcore_CT_RTGcore_AC] (site ACGGGACCTCT) (LTG core: CT, RTG core: AC)  0.534
38. AGGCCTCCTTGGGTTCTAACCTGTTGCCTGA [AGGCCTCCTAG_LTGcore_CT_RTGcore_TC] (site AGGCCTCCTAG) (LTG core: CT, RTG core: TC)  0.578
39. AGGAGGTATTGGGTTCTAACCTGTTGCCTAT [AGGAGGTCTAG_LTGcore_AT_RTGcore_AT] (site AGGAGGTCTAG) (LTG core: AT, RTG core: AT)  0.643
40. AAACATGCTTGGGTTCTAACCTGTTGCCTGC [AAACATGCTAG_LTGcore_CT_RTGcore_GC] (site AAACATGCTAG) (LTG core: CT, RTG core: GC)  0.756
41. AAACATGCTTGGGTTCTAACCTGTTGCCTTT [AAACATGCTAG_LTGcore_CT_RTGcore_AA] (site AAACATGCTAG) (LTG core: CT, RTG core: AA)  0.865
42. AAACATGCTTGGGTTCTAACCTGTTGCCTAC [AAACATGCTAG_LTGcore_CT_RTGcore_GT] (site AAACATGCTAG) (LTG core: CT, RTG core: GT)  1.05
43. AGGCCTCCTTGGGTTCTAACCTGTTGCCTAC [AGGCCTCCTAG_LTGcore_CT_RTGcore_GT] (site AGGCCTCCTAG) (LTG core: CT, RTG core: GT)  1.06
44. ACGGGACCGTGGGTTCTAACCTGTTGCAGAG [ACGGGACCTCT_LTGcore_CG_RTGcore_CT] (site ACGGGACCTCT) (LTG core: CG, RTG core: CT)  1.86
